Assay [1] deals with carrageenan-induced inflammation of paw. Nature of the assay: Carrageenan-induced paw edema, rats.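 On Rat Inflammatory: paw weight increase as percent of control rats.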 Format: in vivo, Sprague Dawley male rats. (In general: The carrageenan paw model is a standard test of acute inflammation.)
The test system of assay [2] is acetic acid induced stretch reflex. The assay can be described thus: Local analgesic screen (acetic acid writhing). Format: in vivo, CF1 mice.
In assay [3] the test system is tail flick response to heat. Nature of the assay: Hot plate tail flick screen. Format: in vivo, CF1 male mice.
For assay [4], the system named is carrageenan-induced pleural fluid. Nature of the assay: Anti-pleurisy screen.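 On Rat Pleurisy: Pleural fluid volume as percent of control rats.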 Format: in vivo, Sprague Dawley male rats.
Assay [5] has as its system adjuvant (M. butyricum) arthritis. Nature of the assay: Chronic adjuvant arthritic screen. The conditions noted are these: rats. Format: in vivo.
Another assay has as its target acid phosphatase. Nature of the assay: Acid phosphatase activity, mouse macrophages. It counts as cell-based, mouse (J774 macrophages). The following applies: Table 3; read-out: IC50 Acid Phosphatase, Mouse Macrophage.
The next assay has as its system cathepsin. Nature of the assay: Cathepsin activity, mouse macrophages. Format: cell-based, mouse (J774 macrophages). The following applies: Table 3; read-out: IC50 Cathepsin, Mouse Macrophage.
For a further assay, the target named is aryl sulphatase. Nature of the assay: Aryl sulfatase activity, mouse macrophages. The conditions noted are these: Table 3; read-out: IC50 Aryl Sulfatase, Mouse Macrophage. It counts as cell-based, mouse (J774 macrophages).
Assay [6] deals with trypsin. Nature of the assay: Trypsin proteolytic activity, mouse macrophages. Format: cell-based, mouse (J774 macrophages). The following applies: Table 5; read-out: IC50 Trypsin, Mouse Macrophage.
Assay [7] concerns the target elastase. Nature of the assay: Elastase activity, mouse macrophages. It counts as cell-based, mouse (J774 macrophages). The following applies: Table 5; read-out: IC50 Elastase, Mouse Macrophage.
Assay [8] concerns trypsin. Nature of the assay: Trypsin activity, UMR-106 osteosarcoma cells. Format: cell-based. The conditions noted are these: Table 6; read-out: IC50 Trypsin, Rat UMR-106 Bone Osteosarcoma.
A further assay concerns neutral cathepsin. The assay can be described thus: Cathepsin activity, UMR-106 osteosarcoma cells. Format: cell-based. The following applies: Table 6; read-out: IC50 Neutral Cathepsin, Rat UMR-106 Bone Osteosarcoma.
The test system of assay [9] is elastase. The assay can be described thus: Elastase activity, UMR-106 osteosarcoma cells. The following applies: Table 6; read-out: IC50 Elastase, Rat UMR-106 Bone Osteosarcoma. Format: cell-based.
The target of assay [10] is prostaglandin cyclooxygenase. The assay can be described thus: Prostaglandin cyclooxygenase activity, macrophages. Format: cell-based, mouse (J774 macrophages). The conditions noted are these: Table 7.
Assay [11] deals with prostaglandin cyclooxygenase. Nature of the assay: Prostaglandin cyclooxygenase activity, Be Sal cells. It counts as cell-based, human (Be Sal osteofibrolytic cells). The conditions noted are these: Table 7; read-out: IC50 Prostaglandin Cyclooxygenase, Be Sal Osteofibro.
Assay [12] deals with T1, prostaglandin cyclooxygenase (Bos taurus, UniProt O62664).
T1 construct: purified commercial prostaglandin synthetase from bovine seminal vesicles (Miles Research Products); purchased Miles Research Products; host or cells: bovine seminal vesicles (tissue preparation)
T1 sequence (O62664 25-600): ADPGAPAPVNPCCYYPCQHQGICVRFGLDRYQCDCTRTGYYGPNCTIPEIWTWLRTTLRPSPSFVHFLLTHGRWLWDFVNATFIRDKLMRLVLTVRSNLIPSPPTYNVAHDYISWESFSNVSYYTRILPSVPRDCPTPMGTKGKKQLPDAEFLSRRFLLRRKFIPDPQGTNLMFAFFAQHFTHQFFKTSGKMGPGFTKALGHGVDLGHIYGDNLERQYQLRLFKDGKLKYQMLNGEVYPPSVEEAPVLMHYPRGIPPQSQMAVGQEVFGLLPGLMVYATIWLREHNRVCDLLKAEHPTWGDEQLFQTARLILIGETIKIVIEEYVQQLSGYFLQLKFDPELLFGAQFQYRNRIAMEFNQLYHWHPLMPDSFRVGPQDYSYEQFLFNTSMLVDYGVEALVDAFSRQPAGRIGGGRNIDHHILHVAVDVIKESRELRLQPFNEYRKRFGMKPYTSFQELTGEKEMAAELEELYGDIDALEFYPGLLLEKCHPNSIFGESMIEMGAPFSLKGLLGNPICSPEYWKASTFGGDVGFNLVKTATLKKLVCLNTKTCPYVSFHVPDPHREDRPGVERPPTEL
Nature of the assay: Prostaglandin synthetase from bovine seminal vesicles. Format: biochemical. The following applies: Table 7; read-out: IC50 Prostaglandin Cyclooxygenase, Beef Seminal Vesicle.

For assay [13], the target named is T2, 5'-lipoxygenase (Mus musculus, UniProt P48999).
T2 construct: endogenous in cells; host or cells: mouse macrophages (J774A as maintained above)
T2 sequence (P48999 1-674): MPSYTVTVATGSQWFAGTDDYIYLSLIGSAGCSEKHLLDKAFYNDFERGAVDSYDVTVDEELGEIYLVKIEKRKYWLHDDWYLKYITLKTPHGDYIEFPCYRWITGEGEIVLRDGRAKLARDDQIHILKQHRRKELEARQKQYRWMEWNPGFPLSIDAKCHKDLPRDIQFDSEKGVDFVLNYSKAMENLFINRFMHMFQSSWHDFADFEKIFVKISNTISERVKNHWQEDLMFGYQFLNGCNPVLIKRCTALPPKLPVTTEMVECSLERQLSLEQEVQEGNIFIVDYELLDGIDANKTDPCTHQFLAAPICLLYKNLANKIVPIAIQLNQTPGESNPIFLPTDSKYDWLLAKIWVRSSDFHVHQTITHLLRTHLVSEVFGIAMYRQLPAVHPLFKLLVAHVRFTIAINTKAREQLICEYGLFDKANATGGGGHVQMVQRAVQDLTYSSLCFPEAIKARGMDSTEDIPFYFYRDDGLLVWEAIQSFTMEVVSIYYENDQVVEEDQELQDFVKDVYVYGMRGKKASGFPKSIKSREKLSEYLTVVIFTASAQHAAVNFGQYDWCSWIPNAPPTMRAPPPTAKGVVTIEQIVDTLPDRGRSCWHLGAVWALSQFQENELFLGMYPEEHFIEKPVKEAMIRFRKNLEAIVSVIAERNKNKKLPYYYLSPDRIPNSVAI
The assay can be described thus: 5'-Lipoxygenase activity, mouse macrophages. It counts as cell-based. The conditions noted are these: Table 7; read-out: IC50 5'-Lipoxygenase, Mouse Macrophage.

The target of assay [14] is T3, 5'-lipoxygenase (Homo sapiens, UniProt P09917).
T3 construct: endogenous in cells; host or cells: RMPI 1788 human leukocytes
T3 sequence (P09917 1-674): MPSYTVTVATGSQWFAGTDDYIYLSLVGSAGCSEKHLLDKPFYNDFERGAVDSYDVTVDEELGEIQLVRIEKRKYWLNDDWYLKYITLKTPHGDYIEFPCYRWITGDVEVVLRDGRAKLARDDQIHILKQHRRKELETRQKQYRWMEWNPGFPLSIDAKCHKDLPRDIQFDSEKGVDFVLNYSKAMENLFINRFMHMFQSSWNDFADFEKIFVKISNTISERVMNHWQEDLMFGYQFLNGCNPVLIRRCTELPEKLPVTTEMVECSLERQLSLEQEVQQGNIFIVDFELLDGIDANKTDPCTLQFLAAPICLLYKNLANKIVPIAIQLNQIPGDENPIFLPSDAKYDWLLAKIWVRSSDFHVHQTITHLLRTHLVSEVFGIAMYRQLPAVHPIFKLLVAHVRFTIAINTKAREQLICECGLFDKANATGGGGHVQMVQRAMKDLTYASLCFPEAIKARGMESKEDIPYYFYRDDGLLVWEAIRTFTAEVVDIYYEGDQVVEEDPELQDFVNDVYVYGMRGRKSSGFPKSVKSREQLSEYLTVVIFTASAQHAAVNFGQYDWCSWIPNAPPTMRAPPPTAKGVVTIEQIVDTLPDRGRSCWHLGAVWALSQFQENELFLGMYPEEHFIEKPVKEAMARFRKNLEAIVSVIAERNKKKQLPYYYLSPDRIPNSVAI
Nature of the assay: 5'-Lipoxygenase activity, human leukocytes. Format: cell-based. The conditions noted are these: Table 7.

Regarding `CCCCCCCCCCCCCCCC[N+](C)(C)[BH2-]C(=O)O` [Compound 8], the “reduction in induced edema in rats” value in assay [1] (8 mg/kg x 2) is “at least 40%”. Further, in assay [1] (8 mg/kg x 2, I.P., Table 2), the “Rat Inflammatory” value is listed as 59 % of control. In addition, the “Mice Writhing Reflex” value in [2] (8 mg/kg I.P., Table 2) is listed as 16 % of control. Moreover, in assay [2] (mice, acetic acid induced local pain, 8 mg/kg), the “reduction of the reflex action” value is listed as 80%. In assay [3] (8 mg/kg I.P., hot plate, Table 2), the “Mice Tail Flick” value is given as 167 % of control. Also, the “tail flick assay time” value in assay [3] (mice, 8 mg/kg) is recorded as “increased”. Moreover, the “pleurisy edema in rats” value in assay [4] (8 mg/kg) is listed as “reduced significantly”. The “Rat Pleurisy” value in assay [4] (rats, 8 mg/kg I.P., 1 h before and 3 h after carrageenan, Table 2) is 19 % of control. Also, the “activity in chronic arthritis screen” value in assay [5] (8 mg/kg/day) was “significantly active”. In addition, in [5] (8 mg/kg/day I.P., Day 3 to Day 21, Table 2), the “Rat Chronic Arthritis” value is 40 % of control. Besides, the half-inhibitory concentration (IC50) (as a rule, the concentration that inhibits the measured activity by half) on acid phosphatase came out at 0.94 µM; in the assay on cathepsin, 7.18 µM; at aryl sulphatase it was 9.71 µM; with trypsin [6] it was 1.26 µM; on elastase [7], 1.8 µM; in the assay with trypsin [8], 6.56 µM. In addition, the concentration for half-maximal inhibition (IC50) was 6.59 µM in the assay on neutral cathepsin; 9.58 µM in the assay on elastase [9]; 2.55 µM in assay [10]; 6.77 µM in assay [11]; 2.43 µM in [12]; 8.76 µM at 5'-lipoxygenase [13]. On 5'-lipoxygenase [14], the IC50 was 1.53 µM.

Values taken from publication PMC2364952, “The Anti-Inflammatory Activity of Boron Derivatives in Rodents” (Metal-Based Drugs, 1995).
